For 17 compounds, MIC and microbicidal properties results are on record in patent US5508417A, “Broad-spectrum isothiazole antimicrobial agents” (Rohm and Haas Company, priority 1994, dated 1996).

In brackets after ≈: the same amount, converted by molar mass. Where two headings read alike, the source gives them in different places.

One experiment has as its system Pseudomonas aeruginosa. Description: Minimum inhibitory concentration by two-fold serial dilution in Trypticase Soy Broth, Pseudomonas aeruginosa. It is filed as cell-based. The procedure:
(§1) A stock solution of the test compound was made in dimethyl sulfoxide at 13,000 ppm and then diluted 26-fold to give a starting concentration of 500 ppm. The antimicrobial activity was evaluated by a two-fold serial dilution of the starting concentration of 500 ppm, using Trypticase Soy Broth medium at pH 7.0. The minimum inhibitory concentration (MIC) of compounds 1-15 against the test organisms are shown in Table 2. |Pseudomonas aeruginosa | Psae The antimicrobial activity of these compounds was determined as described in Example 6 with only one change. The organism Saur was replaced by Rhodotorula rubra (Rrub). Rrub is a pink yeast.

For the next experiment, the system named is Escherichia coli. The experiment can be described thus: Minimum inhibitory concentration by two-fold serial dilution in Trypticase Soy Broth, Escherichia coli. It is filed as cell-based. The procedure: as §1, with “|Escherichia coli Ecol” for “|Pseudomonas aeruginosa | Psae”
The next experiment relates to Staphlococcus aureus. Description: Minimum inhibitory concentration by two-fold serial dilution in Trypticase Soy Broth, Staphlococcus aureus. It counts as cell-based. Particulars: Table 2, pH 7.0, read-out: Antimicrobial Activity (MIC), Saur. The procedure: A stock solution of the test compound was made in dimethyl sulfoxide at 13,000 ppm and then diluted 26-fold to give a starting concentration of 500 ppm. The antimicrobial activity was evaluated by a two-fold serial dilution of the starting concentration of 500 ppm, using Trypticase Soy Broth medium at pH 7.0. The minimum inhibitory concentration (MIC) of compounds 1-15 against the test organisms are shown in Table 2. |Staphlococcus aureus | Saur

A further experiment concerns Aspergillus niger. The experiment can be described thus: Minimum inhibitory concentration by two-fold serial dilution in Trypticase Soy Broth, Aspergillus niger. It is filed as cell-based. The procedure:
as §1, with “|Aspergillus niger Anig” for “|Pseudomonas aeruginosa | Psae”

Another experiment deals with Rhodotorula rubra. Description: Minimum inhibitory concentration by two-fold serial dilution in Trypticase Soy Broth, Rhodotorula rubra. It counts as cell-based. Particulars: Table 3, comparative, as described in Example 6, read-out: Comparative Antimicrobial Activity (MIC), Rrub. The procedure:
A stock solution of the test compound was made in dimethyl sulfoxide at 13,000 ppm and then diluted 26-fold to give a starting concentration of 500 ppm. The antimicrobial activity was evaluated by a two-fold serial dilution of the starting concentration of 500 ppm, using Trypticase Soy Broth medium at pH 7.0. The antimicrobial activity of these compounds was determined as described in Example 6 with only one change. The organism Saur was replaced by Rhodotorula rubra (Rrub). Rrub is a pink yeast.

For experiment [1] the following is noted: in words; U.S. Pat. No. 3,957,808; cited from earlier work.
Setting [2] is: Table 2, Trypticase Soy Broth, pH 7.0, read-out: Antimicrobial Activity (MIC), Psae.
The mark [3] stands for this setting: Table 2, Trypticase Soy Broth, pH 7.0, read-out: Antimicrobial Activity (MIC), Ecol.
[4] abbreviates: Table 2, Trypticase Soy Broth, pH 7.0, read-out: Antimicrobial Activity (MIC), Anig.
[5] abbreviates: Table 3, comparative, as described in Example 6, read-out: Comparative Antimicrobial Activity (MIC), Psae.
The mark [6] stands for this setting: Table 3, comparative, as described in Example 6, read-out: Comparative Antimicrobial Activity (MIC), Ecol.
Where [7] appears, read: Table 3, comparative, as described in Example 6, read-out: Comparative Antimicrobial Activity (MIC), Anig.

Take `C=C(COc1cc(Cl)sn1)C(=O)NC(C)C` [Compound 12, N-Isopropyl 2-(5-chloroisothiazoloxy-3-yl-methyl)acrylamide]: the MIC in the experiment on Pseudomonas aeruginosa (setting [2]) was 500 µg/mL (≈ 1920 µM); in the experiment with Escherichia coli (setting [3]), 500 µg/mL (≈ 1920 µM); with Staphlococcus aureus it was above 500 µg/mL; in the experiment with Aspergillus niger (setting [4]) it was 64 µg/mL (≈ 245 µM).
Turning to `CC=C(COc1cc(Cl)sn1)C(=O)OCC` [Compound 3, Ethyl 3-methyl-2-(5-chloroisothiazoloxy-3-yl-methyl)acrylate], the minimal inhibitory concentration (MIC) in the experiment with Pseudomonas aeruginosa (setting [2]) was determined as 125 µg/mL (≈ 478 µM); with Escherichia coli (setting [3]), 8 µg/mL (≈ 30.6 µM); in the experiment with Staphlococcus aureus, 8 µg/mL (≈ 30.6 µM); with Aspergillus niger (setting [4]), 4 µg/mL (≈ 15.3 µM).
Turning to `CC(=O)C(=Cc1ccccc1)COc1nsc2c1CCC2` [Compound 11, α-(4,5-Trimethyleneisothiazoloxy-3-yl-methyl)benzalacetone], the MIC is above 500 µg/mL in the experiment with Pseudomonas aeruginosa (setting [2]), above 500 µg/mL in the experiment on Escherichia coli (setting [3]), above 500 µg/mL in the experiment on Staphlococcus aureus and 500 µg/mL (≈ 1670 µM) in the experiment with Aspergillus niger (setting [4]).
Take `O=c1c(COc2cc(Cl)sn2)coc2ccccc12` [Compound 13, 3-(5-Chloroisothiazoloxy-3-yl-methyl)chromone]: the MIC worked out at 32 µg/mL (≈ 109 µM) in the experiment on Pseudomonas aeruginosa (setting [2]), 8 µg/mL (≈ 27.2 µM) in the experiment on Escherichia coli (setting [3]), 8 µg/mL (≈ 27.2 µM) with Staphlococcus aureus and 16 µg/mL (≈ 54.5 µM) in the experiment on Aspergillus niger (setting [4]).
With `C=CCOc1ccsn1` [Compound A, reference compound], the MIC in the experiment with Pseudomonas aeruginosa (setting [5]) was above 500 µg/mL; in the experiment on Escherichia coli (setting [6]) it was above 500 µg/mL; in the experiment with Aspergillus niger (setting [7]) it was 500 µg/mL (≈ 3540 µM); in the experiment on Rhodotorula rubra, above 500 µg/mL. For the same compound, in experiment [1], the microbicidal properties entry is “useful microbicidal properties”.
In the case of `C=C(COc1cc(Cl)sn1)C(=O)O` [Compound 10, 2-(5-Chloroisothiazoloxy-3-yl-methyl)acrylic acid], the MIC in the experiment with Pseudomonas aeruginosa (setting [2]) is above 500 µg/mL; in the experiment with Escherichia coli (setting [3]), 125 µg/mL (≈ 569 µM); in the experiment on Staphlococcus aureus, 64 µg/mL (≈ 291 µM); in the experiment on Aspergillus niger (setting [4]) it was above 500 µg/mL.
In the case of `CC=C(COc1cc(Cl)sn1)S(=O)(=O)c1ccccc1` [Compound 8, 1-(5-Chloroisothiazoloxy-3-yl-methyl)-2-phenylsulfonyl-2-butene], the minimum inhibitory concentration (MIC) in the experiment on Pseudomonas aeruginosa (setting [2]) stood at 64 µg/mL (≈ 194 µM); with Escherichia coli (setting [3]) it was 32 µg/mL (≈ 97 µM); in the experiment with Staphlococcus aureus it was 32 µg/mL (≈ 97 µM); in the experiment with Aspergillus niger (setting [4]), 64 µg/mL (≈ 194 µM).
Consider `O=C1C=CC(=O)C(COc2ccsn2)=C1` [Compound 15, 2-(Isothiazoloxy-3-yl-methyl)-1,4-benzoquinone], for which the MIC came out at 32 µg/mL (≈ 145 µM) in the experiment on Pseudomonas aeruginosa (setting [2]), 64 µg/mL (≈ 289 µM) with Escherichia coli (setting [3]), 32 µg/mL (≈ 145 µM) in the experiment with Staphlococcus aureus and 16 µg/mL (≈ 72.3 µM) in the experiment on Aspergillus niger (setting [4]).
For `C=C(COc1cc(Cl)sn1)C(=O)OC` [Compound 2, Methyl 2-(5-chloroisothiazoloxy-3-yl-methyl)acrylate], the MIC with Pseudomonas aeruginosa (setting [2]) is 32 µg/mL (≈ 137 µM); in the experiment with Pseudomonas aeruginosa (setting [5]) it was 32 µg/mL (≈ 137 µM); in the experiment on Escherichia coli (setting [3]), 2 µg/mL (≈ 8.56 µM); in the experiment with Escherichia coli (setting [6]), below 4 µg/mL; in the experiment on Staphlococcus aureus it was 4 µg/mL (≈ 17.1 µM); in the experiment on Aspergillus niger (setting [4]) it was 1 µg/mL (≈ 4.28 µM). For the same compound, the minimum inhibitory concentration (MIC) stood at 4 µg/mL (≈ 17.1 µM) with Aspergillus niger (setting [7]) and 8 µg/mL (≈ 34.2 µM) with Rhodotorula rubra.
Consider `O=C1C=CC(=O)C(COc2cc(Cl)sn2)=C1` [Compound 14, 2-(5-Chloroisothiazoloxy-3-yl-methyl)-1,4-benzoquinone], for which the minimum inhibitory concentration (MIC) with Pseudomonas aeruginosa (setting [2]) is 64 µg/mL (≈ 250 µM); with Escherichia coli (setting [3]), 16 µg/mL (≈ 62.6 µM); in the experiment on Staphlococcus aureus, 64 µg/mL (≈ 250 µM); in the experiment with Aspergillus niger (setting [4]), 8 µg/mL (≈ 31.3 µM).
As to `CC(=O)C(=Cc1ccccc1)COc1cc(Cl)sn1` [Compound 5, α-(5-Chloroisothiazoloxy-3-yl-methyl)benzalacetone], the minimal inhibitory concentration (MIC) in the experiment with Pseudomonas aeruginosa (setting [2]) is 16 µg/mL (≈ 54.5 µM); in the experiment with Escherichia coli (setting [3]) it was 4 µg/mL (≈ 13.6 µM); in the experiment on Staphlococcus aureus, 2 µg/mL (≈ 6.81 µM); with Aspergillus niger (setting [4]), 1 µg/mL (≈ 3.4 µM).
`C=C(COc1cc(Cl)sn1)[S+]([O-])c1ccccc1` (stereo not shown) [Compound 6, 3-(5-Chloroisothiazoloxy-3-yl-methyl)-2-phenylsulfinyl-1-propene]: the MIC came to 125 µg/mL (≈ 417 µM) in the experiment with Pseudomonas aeruginosa (setting [2]), 125 µg/mL (≈ 417 µM) in the experiment on Escherichia coli (setting [3]), 125 µg/mL (≈ 417 µM) in the experiment with Staphlococcus aureus and 32 µg/mL (≈ 107 µM) with Aspergillus niger (setting [4]).
With `C=CCOc1cc(Cl)sn1` [B, reference compound], the MIC with Pseudomonas aeruginosa (setting [5]) stood at 500 µg/mL (≈ 2850 µM); with Escherichia coli (setting [6]) it was 250 µg/mL (≈ 1420 µM); in the experiment with Aspergillus niger (setting [7]), 250 µg/mL (≈ 1420 µM); in the experiment with Rhodotorula rubra, 500 µg/mL (≈ 2850 µM).
In the case of `C=C(COc1ccsn1)C(=O)OC` [Compound 1, Methyl 2-(isothiazoloxy-3-yl-methyl)acrylate], the MIC in the experiment on Pseudomonas aeruginosa (setting [2]), with Pseudomonas aeruginosa (setting [5]), with Escherichia coli (setting [3]), in the experiment on Escherichia coli (setting [6]), in the experiment on Aspergillus niger (setting [4]) and in the experiment with Aspergillus niger (setting [7]) was 32 µg/mL (≈ 161 µM) in each case. The minimal inhibitory concentration (MIC) in the experiment on Rhodotorula rubra worked out at 32 µg/mL (≈ 161 µM).
As to `C=C(COc1cc(Cl)sn1)C(=O)NCc1ccccc1` [Compound 9, N-Benzyl 2-(5-chloroisothiazoloxy-3-yl-methyl)acrylamide], the MIC is above 500 µg/mL in the experiment on Pseudomonas aeruginosa (setting [2]), above 500 µg/mL in the experiment on Escherichia coli (setting [3]), above 500 µg/mL with Staphlococcus aureus and 32 µg/mL (≈ 104 µM) with Aspergillus niger (setting [4]).
Consider `N#CC(=Cc1ccccc1)COc1cc(Cl)sn1` [Compound 4, 2-(5-Chloroisothiazoloxy-3-yl-methyl)-3-phenylacrylonitrile], for which the minimal inhibitory concentration (MIC) in the experiment on Pseudomonas aeruginosa (setting [2]) is above 500 µg/mL; in the experiment with Escherichia coli (setting [3]), above 500 µg/mL; with Staphlococcus aureus, 500 µg/mL (≈ 1810 µM); in the experiment with Aspergillus niger (setting [4]), 500 µg/mL (≈ 1810 µM).
For the compound `C=C(C(C)Oc1cc(Cl)sn1)S(=O)(=O)c1ccccc1` (stereo not shown) [Compound 7, 3-(5-Chloroisothiazoloxy-3-yl)-2-phenylsulfonyl-1-butene], the minimum inhibitory concentration (MIC) in the experiment with Pseudomonas aeruginosa (setting [2]), with Escherichia coli (setting [3]), in the experiment on Staphlococcus aureus and in the experiment with Aspergillus niger (setting [4]) was 32 µg/mL (≈ 97 µM) throughout.
